Measured values taken from PubChem BioAssay (NCI).
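Dose response: 5 concentrations. Exposure: 48 h. Format: 96-well plates. Endpoint: linear interpolation; highest concentration if not reached. GI50 = concentration required for 50% inhibition of growth. TGI marks complete inhibition of growth.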

Experiments:
Assay in all cases: NCI tumour cell line growth inhibition, 48 h
BT-549 breast = tested on: BT-549 breast
OVCAR-5 ovarian = tested on: OVCAR-5 ovarian
NCI-H460 lung = tested on: NCI-H460 lung
SK-OV-3 ovarian = tested on: SK-OV-3 ovarian
CAKI-1 renal = tested on: CAKI-1 renal
OVCAR-8 ovarian = tested on: OVCAR-8 ovarian
PC-3 prostate = tested on: PC-3 prostate
SK-MEL-5 melanoma = tested on: SK-MEL-5 melanoma
NCI/ADR-RES ovarian = tested on: NCI/ADR-RES ovarian
HCC-2998 colon = tested on: HCC-2998 colon
SNB-19 CNS = tested on: SNB-19 CNS
SF-268 CNS = tested on: SF-268 CNS
TK-10 renal = tested on: TK-10 renal
NCI-H23 lung = tested on: NCI-H23 lung
LOX IMVI melanoma = tested on: LOX IMVI melanoma
SR leukemia = tested on: SR leukemia
UACC-62 melanoma = tested on: UACC-62 melanoma
MOLT-4 leukemia = tested on: MOLT-4 leukemia
SW-620 colon = tested on: SW-620 colon
K-562 leukemia = tested on: K-562 leukemia
EKVX NSCLC = tested on: EKVX NSCLC
MDA-MB-231 breast = tested on: MDA-MB-231 breast
SF-295 CNS = tested on: SF-295 CNS
HT29 colon = tested on: HT29 colon
DU-145 prostate = tested on: DU-145 prostate
UO-31 renal = tested on: UO-31 renal
MALME-3M melanoma = tested on: MALME-3M melanoma
SN12C renal = tested on: SN12C renal
NCI-H522 lung = tested on: NCI-H522 lung
COLO 205 colon = tested on: COLO 205 colon
ACHN renal = tested on: ACHN renal
CCRF-CEM leukemia = tested on: CCRF-CEM leukemia
A549 NSCLC = tested on: A549 NSCLC
KM12 colon = tested on: KM12 colon
UACC-257 melanoma = tested on: UACC-257 melanoma
U251 CNS = tested on: U251 CNS
HOP-92 NSCLC = tested on: HOP-92 NSCLC
HCT-15 colon = tested on: HCT-15 colon
SK-MEL-28 melanoma = tested on: SK-MEL-28 melanoma
MCF7 breast = tested on: MCF7 breast
OVCAR-3 ovarian = tested on: OVCAR-3 ovarian
SNB-75 CNS = tested on: SNB-75 CNS
HL-60(TB) leukemia = tested on: HL-60(TB) leukemia
IGROV1 ovarian = tested on: IGROV1 ovarian
SK-MEL-2 melanoma = tested on: SK-MEL-2 melanoma
HS 578T breast = tested on: HS 578T breast
NCI-H226 lung = tested on: NCI-H226 lung
MDA-MB-435 = tested on: MDA-MB-435
786-0 renal = tested on: 786-0 renal
M14 melanoma = tested on: M14 melanoma
A498 renal = tested on: A498 renal
SF-539 CNS = tested on: SF-539 CNS
HCT-116 colon = tested on: HCT-116 colon
HOP-62 NSCLC = tested on: HOP-62 NSCLC
OVCAR-4 ovarian = tested on: OVCAR-4 ovarian
RPMI-8226 leukemia = tested on: RPMI-8226 leukemia
T-47D breast = tested on: T-47D breast
RXF 393 renal = tested on: RXF 393 renal

Compound: O=S(=O)(Nc1ccccc1Cl)c1ccc(-c2cnc(C3CC3)o2)cc1
- GI50 (BT-549 breast): 2120 nM
- TGI (BT-549 breast): 69300 nM
- GI50 (OVCAR-5 ovarian): 2440 nM
- TGI (OVCAR-5 ovarian): > 100000 nM
- GI50 (NCI-H460 lung): 397 nM
- TGI (NCI-H460 lung): 15600 nM
- GI50 (SK-OV-3 ovarian): 1230 nM
- TGI (SK-OV-3 ovarian): > 67700 nM
- GI50 (CAKI-1 renal): 321 nM
- TGI (CAKI-1 renal): 82000 nM
- GI50 (OVCAR-8 ovarian): 1220 nM
- TGI (OVCAR-8 ovarian): > 100000 nM
- GI50 (PC-3 prostate): 521 nM
- TGI (PC-3 prostate): > 100000 nM
- GI50 (SK-MEL-5 melanoma): 453 nM
- TGI (SK-MEL-5 melanoma): 15900 nM
- GI50 (NCI/ADR-RES ovarian): 314 nM
- TGI (NCI/ADR-RES ovarian): 65900 nM
- GI50 (HCC-2998 colon): 2540 nM
- TGI (HCC-2998 colon): 33300 nM
- GI50 (SNB-19 CNS): 642 nM
- TGI (SNB-19 CNS): > 100000 nM
- GI50 (SF-268 CNS): 12400 nM
- TGI (SF-268 CNS): > 100000 nM
- GI50 (TK-10 renal): 11800 nM
- TGI (TK-10 renal): > 100000 nM
- GI50 (NCI-H23 lung): 1780 nM
- TGI (NCI-H23 lung): > 100000 nM
- GI50 (LOX IMVI melanoma): 790 nM
- TGI (LOX IMVI melanoma): > 90800 nM
- GI50 (SR leukemia): 68.4 nM
- TGI (SR leukemia): > 55700 nM
- GI50 (UACC-62 melanoma): 402 nM
- TGI (UACC-62 melanoma): 47600 nM
- GI50 (MOLT-4 leukemia): 710 nM
- TGI (MOLT-4 leukemia): > 63600 nM
- GI50 (SW-620 colon): 312 nM
- TGI (SW-620 colon): > 100000 nM
- GI50 (K-562 leukemia): 84.5 nM
- TGI (K-562 leukemia): > 100000 nM
- GI50 (EKVX NSCLC): 4350 nM
- TGI (EKVX NSCLC): > 89100 nM
- GI50 (MDA-MB-231 breast): 1920 nM
- TGI (MDA-MB-231 breast): 84900 nM
- GI50 (SF-295 CNS): 438 nM
- TGI (SF-295 CNS): 15300 nM
- GI50 (HT29 colon): 331 nM
- TGI (HT29 colon): > 41200 nM
- GI50 (DU-145 prostate): 940 nM
- TGI (DU-145 prostate): > 100000 nM
- GI50 (UO-31 renal): 832 nM
- TGI (UO-31 renal): > 77100 nM
- GI50 (MALME-3M melanoma): 472 nM
- TGI (MALME-3M melanoma): 44300 nM
- GI50 (SN12C renal): 797 nM
- TGI (SN12C renal): > 100000 nM
- GI50 (NCI-H522 lung): 260 nM
- TGI (NCI-H522 lung): 15600 nM
- GI50 (COLO 205 colon): 489 nM
- TGI (COLO 205 colon): 5580 nM
- GI50 (ACHN renal): 744 nM
- TGI (ACHN renal): > 100000 nM
- GI50 (CCRF-CEM leukemia): 388 nM
- TGI (CCRF-CEM leukemia): > 100000 nM
- GI50 (A549 NSCLC): 867 nM
- TGI (A549 NSCLC): 99700 nM
- GI50 (KM12 colon): 393 nM
- TGI (KM12 colon): 32400 nM
- GI50 (UACC-257 melanoma): 19200 nM
- TGI (UACC-257 melanoma): 75000 nM
- GI50 (U251 CNS): 583 nM
- TGI (U251 CNS): > 100000 nM
- GI50 (HOP-92 NSCLC): 324 nM
- TGI (HOP-92 NSCLC): 7280 nM
- GI50 (HCT-15 colon): 282 nM
- TGI (HCT-15 colon): > 100000 nM
- GI50 (SK-MEL-28 melanoma): 3340 nM
- TGI (SK-MEL-28 melanoma): > 100000 nM
- GI50 (MCF7 breast): 284 nM
- TGI (MCF7 breast): > 100000 nM
- GI50 (OVCAR-3 ovarian): 303 nM
- TGI (OVCAR-3 ovarian): 15700 nM
- GI50 (SNB-75 CNS): 139 nM
- TGI (SNB-75 CNS): 599 nM
- GI50 (HL-60(TB) leukemia): 274 nM
- TGI (HL-60(TB) leukemia): 886 nM
- GI50 (IGROV1 ovarian): 680 nM
- TGI (IGROV1 ovarian): > 100000 nM
- GI50 (SK-MEL-2 melanoma): 640 nM
- TGI (SK-MEL-2 melanoma): > 100000 nM
- GI50 (HS 578T breast): 346 nM
- TGI (HS 578T breast): > 94900 nM
- GI50 (NCI-H226 lung): 4840 nM
- TGI (NCI-H226 lung): > 68400 nM
- GI50 (MDA-MB-435): 55.2 nM
- TGI (MDA-MB-435): 388 nM
- GI50 (786-0 renal): 809 nM
- TGI (786-0 renal): > 85100 nM
- GI50 (M14 melanoma): 279 nM
- TGI (M14 melanoma): > 100000 nM
- GI50 (A498 renal): 87.3 nM
- TGI (A498 renal): 608 nM
- GI50 (SF-539 CNS): 332 nM
- TGI (SF-539 CNS): 2330 nM
- GI50 (HCT-116 colon): 401 nM
- TGI (HCT-116 colon): > 75500 nM
- GI50 (HOP-62 NSCLC): 501 nM
- TGI (HOP-62 NSCLC): > 100000 nM
- GI50 (OVCAR-4 ovarian): 4210 nM
- TGI (OVCAR-4 ovarian): > 100000 nM
- GI50 (RPMI-8226 leukemia): 541 nM
- TGI (RPMI-8226 leukemia): 22700 nM
- GI50 (T-47D breast): 464 nM
- TGI (T-47D breast): > 54700 nM
- GI50 (RXF 393 renal): 266 nM
- TGI (RXF 393 renal): 1180 nM
